Key:
[1] = tested on: bone cancer pain in rats (Walker rat breast cancer cells, tibia implant model); assay: Mechanical pain hypersensitivity (paw withdrawal threshold) in rat tibia implant bone cancer pain model; format: in vivo; details: for Paw withdrawal threshold compared with the model group: from 5-7 days after administration, p<0.05
Method: After two SD female rats were intraperitoneally injected with 0.5 mL cancer cells (4×10^4 cells/μL), ascites was collected on the 7th day, and the cells are rinsed 3 times with sterile 0.01 mol/L PBS to adjust to the concentration of 4×10^3 cells/μL for use. 60 SD rats were randomly selected, and after anesthesia, a small 1 cm incision was made in the upper tibial skin. A 10 mL syringe needle was used to puncture and perforate, then a 10 μL syringe was inserted into the bone marrow cavity, and 3 μL cell suspension containing […] Walker rat breast cancer cells was slowly injected. The pinhole was sealed with bone wax, and the skin was sutured. After surgery, the rats were placed on a 37° C. hot plate for rewarming. After recovery, rats were returned to the cage for further breeding, to obtain the model group. In addition, 8 SD rats were randomly selected, and an equal volume of PBS solution was injected into the marrow cavity of the left upper tibia. The rest of the operations were the same as the model group, to obtain the sham operation group. Mechanical pain hypersensitivity: continuous pain measurement was performed from the 10th day after the operation, the contact stimulator's fine fibers were allowed to touch with the middle of the affected side of the rat's plantar, and the force can be increased up to 80 g within 5 seconds. The rat's paw withdrawal respond was observed, and the paw withdrawal threshold was recorded. Each animal was tested 5 times, with an interval of 5 min between two tests. […] The rats that had been successfully modeled were randomly divided into groups, eight rats for each group, that included high-dose chlorogenic acid group (80 mg/kg), middle-dose chlorogenic acid group (40 mg/kg), low-dose chlorogenic acid group (20 mg/kg), model negative group (N.S normal saline), and sham operation group (N.S normal saline). The rats were intraperitoneally injected with drugs for 15 days in a volume of 0.2 mL/10 g, once a day; the model-negative group and the sham operation group were given the same volume of normal saline. From the second day after administration, the mechanical pain hypersensitivity and radiation thermal pain were investigated before each administration, and the paw withdrawal threshold and the pain threshold were recorded.

[2] = tested on: TNF-α; assay: Serum TNF-α content by ELISA in bone cancer pain rats; format: in vivo, rat; details: for Cytokines TNF-α content in serum: after 15 days of administration; for Serum level of TNF-α compared with the model-negative group: after 15 days
Method: (§1) 60 SD rats were randomly selected, and after anesthesia, a small 1 cm incision was made in the upper tibial skin. A 10 mL syringe needle was used to puncture and perforate, then a 10 μL syringe was inserted into the bone marrow cavity, and 3 μL cell suspension containing 3×10^3 Walker rat breast cancer cells was slowly injected. The pinhole was sealed with bone wax, and the skin was sutured. After surgery, the rats were placed on a 37° C. hot plate for rewarming. After recovery, rats were returned to the cage for further breeding, to obtain the model group. In addition, 8 SD rats were randomly selected, and an equal volume of PBS solution was injected into the marrow cavity of the left upper tibia. The rest of the operations were the same as the model group, to obtain the sham operation group. The rats that had been successfully modeled were randomly divided into groups, eight rats for each group, that included high-dose chlorogenic acid group (80 mg/kg), middle-dose chlorogenic acid group (40 mg/kg), low-dose chlorogenic acid group (20 mg/kg), model negative group (N.S normal saline), and sham operation group (N.S normal saline). The rats were intraperitoneally injected with drugs for 15 days in a volume of 0.2 mL/10 g, once a day; the model-negative group and the sham operation group were given the same volume of normal saline. After the last administration, blood was collected from the eyeballs of the rats, and the animals in each group were sacrificed by neck removal. The blood samples were allowed to stand at room temperature for 20 minutes and then centrifuged. The supernatant was collected and the contents of TNF-α, IL-1β, and IL-6 in the peripheral blood serum of the […] were determined by ELISA.

[3] = tested on: IL-1β; assay: Serum IL-1β content by ELISA in bone cancer pain rats; format: in vivo, rat; details: for Cytokines IL-1β content in serum: after 15 days of administration; for Serum level of IL-1β compared with the model-negative group: after 15 days
Method: as §1

O=C(/C=C/c1ccc(O)c(O)c1)O[C@@H]1C[C@](O)(C(=O)O)C[C@@H](O)[C@H]1O [Chlorogenic acid]
Paw withdraw threshold ([1]; 20 mg/kg ip once a day, 2 d): 16.46 g
Paw withdraw threshold ([1]; 20 mg/kg ip once a day, 3 d): 22.32 g
Paw withdraw threshold ([1]; 20 mg/kg ip once a day, 4 d): 26.14 g
Paw withdraw threshold ([1]; 20 mg/kg ip once a day, 5 d): 24.86 g
Paw withdraw threshold ([1]; 20 mg/kg ip once a day, 6 d): 31.21 g
Paw withdraw threshold ([1]; 20 mg/kg ip once a day, 7 d): 37.06 g
Paw withdraw threshold ([1]; 20 mg/kg ip once a day, 8 d): 35.11 g
Paw withdraw threshold ([1]; 20 mg/kg ip once a day, 9 d): 38.48 g
Paw withdraw threshold ([1]; 20 mg/kg ip once a day, 10 d): 37.23 g
Paw withdraw threshold ([1]; 20 mg/kg ip once a day, 11 d): 34.22 g
Paw withdraw threshold ([1]; 20 mg/kg ip once a day, 12 d): 36.74 g
Paw withdraw threshold ([1]; 20 mg/kg ip once a day, 13 d): 33.02 g
Paw withdraw threshold ([1]; 20 mg/kg ip once a day, 14 d): 35.43 g
Paw withdraw threshold ([1]; 20 mg/kg ip once a day, 15 d): 36.52 g
Paw withdrawal threshold compared with the model group ([1]; 20 mg/kg): significant difference
Paw withdraw threshold ([1]; 40 mg/kg ip once a day, 2 d): 18.53 g
Paw withdraw threshold ([1]; 40 mg/kg ip once a day, 3 d): 24.94 g
Paw withdraw threshold ([1]; 40 mg/kg ip once a day, 4 d): 36.37 g
Paw withdraw threshold ([1]; 40 mg/kg ip once a day, 5 d): 42.83 g
Paw withdraw threshold ([1]; 40 mg/kg ip once a day, 6 d): 43.59 g
Paw withdraw threshold ([1]; 40 mg/kg ip once a day, 7 d): 45.85 g
Paw withdraw threshold ([1]; 40 mg/kg ip once a day, 8 d): 50.41 g
Paw withdraw threshold ([1]; 40 mg/kg ip once a day, 9 d): 46.49 g
Paw withdraw threshold ([1]; 40 mg/kg ip once a day, 10 d): 48.77 g
Paw withdraw threshold ([1]; 40 mg/kg ip once a day, 11 d): 44.59 g
Paw withdraw threshold ([1]; 40 mg/kg ip once a day, 12 d): 50.52 g
Paw withdraw threshold ([1]; 40 mg/kg ip once a day, 13 d): 43.72 g
Paw withdraw threshold ([1]; 40 mg/kg ip once a day, 14 d): 48.73 g
Paw withdraw threshold ([1]; 40 mg/kg ip once a day, 15 d): 46.51 g
Paw withdrawal threshold compared with the model group ([1]; 40 mg/kg): significant difference
Paw withdraw threshold ([1]; 80 mg/kg ip once a day, 2 d): 20.58 g
Paw withdraw threshold ([1]; 80 mg/kg ip once a day, 3 d): 18.59 g
Paw withdraw threshold ([1]; 80 mg/kg ip once a day, 4 d): 24.41 g
Paw withdraw threshold ([1]; 80 mg/kg ip once a day, 5 d): 24.39 g
Paw withdraw threshold ([1]; 80 mg/kg ip once a day, 6 d): 26.53 g
Paw withdraw threshold ([1]; 80 mg/kg ip once a day, 7 d): 26.07 g
Paw withdraw threshold ([1]; 80 mg/kg ip once a day, 8 d): 24.52 g
Paw withdraw threshold ([1]; 80 mg/kg ip once a day, 9 d): 26.11 g
Paw withdraw threshold ([1]; 80 mg/kg ip once a day, 10 d): 23.21 g
Paw withdraw threshold ([1]; 80 mg/kg ip once a day, 11 d): 25.42 g
Paw withdraw threshold ([1]; 80 mg/kg ip once a day, 12 d): 22.63 g
Paw withdraw threshold ([1]; 80 mg/kg ip once a day, 13 d): 25.79 g
Paw withdraw threshold ([1]; 80 mg/kg ip once a day, 14 d): 23.25 g
Paw withdraw threshold ([1]; 80 mg/kg ip once a day, 15 d): 24.83 g
Mechanical paw withdrawal threshold compared with the model group ([1]; 80 mg/kg, p>0.05): not statistically significant
Cytokines TNF-α content in serum ([2]; 20 mg/kg ip once a day): 39.74 ± 6.04 ng/L
Serum level of TNF-α compared with the model-negative group ([2]; 20 mg/kg, p<0.05): lower than those in the model-negative group
Cytokines TNF-α content in serum ([2]; 40 mg/kg ip once a day): 35.25 ± 4.62 ng/L
Serum level of TNF-α compared with the model-negative group ([2]; 40 mg/kg, p<0.05): lower than those in the model-negative group
Cytokines TNF-α content in serum ([2]; 80 mg/kg ip once a day): 54.48 ± 5.99 ng/L
Serum level of TNF-α compared with the model-negative group ([2]; 80 mg/kg): the difference was not significant
Cytokines IL-1β content in serum ([3]; 20 mg/kg ip once a day): 58.54 ± 8.23 ng/L
Serum level of IL-1β compared with the model-negative group ([3]; 20 mg/kg, p<0.05): lower than those in the model-negative group
Cytokines IL-1β content in serum ([3]; 40 mg/kg ip once a day): 52.71 ± 6.39 ng/L
Serum level of IL-1β compared with the model-negative group ([3]; 40 mg/kg, p<0.05): lower than those in the model-negative group
Cytokines IL-1β content in serum ([3]; 80 mg/kg ip once a day): 76.25 ± 4.62 ng/L
Serum level of IL-1β compared with the model-negative group ([3]; 80 mg/kg): the difference was not significant

Reference: patent US20250205186A1, “USE OF CHLOROGENIC ACID IN PREPARING MEDICINE OR PHARMACEUTICAL COMPOSITION FOR PREVENTING OR TREATING PAIN” (SICHUAN JIUZHANG BIOLOGICAL SCIENCE AND TECHNOLOGY CO., LTD., priority 2019, published 2025)
